Where “and” joins values, the source holds several entries; their conditions need not be identical. Identical values can stand only once. Inconclusive results and toxic doses are left out.
Tested on: P388 leukemia ip, CD2F1 mice, survival T/C
Test: NCI In Vivo Anticancer Drug Screen. Data for tumor model P388 Leukemia (intraperitoneal) in CD2F1 (CDF1) mice
Conditions: endpoint: median survival time, higher = longer survival
Method in brief: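 Mice carrying the transplanted tumor received test compound or vehicle. Survival was recorded in each group, and the value is the treated-group measurement divided by that of the vehicle-treated control group.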

[1] = dose: 50.0 mg/kg/injection, schedule: Q01DX005 (ip), vehicle: Klucel (hydroxypropylcellulose) (HPC)
[2] = dose: 100.0 mg/kg/injection, schedule: Q01DX005 (ip), vehicle: Klucel (hydroxypropylcellulose) (HPC)
[3] = dose: 200.0 mg/kg/injection, schedule: Q01DX005 (ip), vehicle: Klucel (hydroxypropylcellulose) (HPC)
[4] = dose: 25.0 mg/kg/injection, schedule: Q01DX009 (ip), vehicle: other
[5] = dose: 50.0 mg/kg/injection, schedule: Q01DX009 (ip), vehicle: other
[6] = dose: 100.0 mg/kg/injection, schedule: Q01DX009 (ip), vehicle: other
[7] = dose: 200.0 mg/kg/injection, schedule: Q01DX009 (ip), vehicle: other
[8] = dose: 400.0 mg/kg/injection, schedule: Q01DX009 (ip), vehicle: other
[9] = dose: 1.56 mg/kg/injection, schedule: Q01DX009 (ip), vehicle: saline with Tween-80
[10] = dose: 50.0 mg/kg/injection, schedule: Q01DX005 (ip), vehicle: saline with Tween-80
[11] = dose: 100.0 mg/kg/injection, schedule: Q01DX005 (ip), vehicle: saline with Tween-80
[12] = dose: 200.0 mg/kg/injection, schedule: Q01DX005 (ip), vehicle: saline with Tween-80

`OC1CN(Cc2ccccc2)C[C@@H]1O` (stereo not given in full) was tested, and the T/C (dose: 60.0 mg/kg/injection, schedule: Q01DX005 (ip), vehicle: saline) was 100 % of control and the T/C (dose: 120.0 mg/kg/injection, schedule: Q01DX005 (ip), vehicle: saline) was 96 % of control.

In the case of `CC(C)=CCC1(O)C(=O)c2ccccc2C1(O)C(=O)O` (stereo not given), the T/C (dose: 25.0 mg/kg/injection, schedule: Q01DX009 (ip), vehicle: Klucel (hydroxypropylcellulose) (HPC)) is reported as 101 % of control, the T/C (dose: 50.0 mg/kg/injection, schedule: Q01DX009 (ip), vehicle: Klucel (hydroxypropylcellulose) (HPC)) is reported as 100 % of control and the T/C (dose: 100.0 mg/kg/injection, schedule: Q01DX009 (ip), vehicle: Klucel (hydroxypropylcellulose) (HPC)) is reported as 107 % of control. The T/C (dose: 200.0 mg/kg/injection, schedule: Q01DX009 (ip), vehicle: Klucel (hydroxypropylcellulose) (HPC)) was 99 % of control.

In the case of `NC(=O)c1nnn2c1nc(N)c1cc(Cl)ccc12`, the T/C [1] is reported as 100 % of control, the T/C [2] is reported as 104 % of control and the T/C [3] is reported as 99 % of control.

For `COc1ccc2c(c1)S(=O)(=O)C(c1ccccc1)=CC2=O`, the T/C [1] was 114 % of control, the T/C [2] was 115 % of control and the T/C [3] was 123 % of control.

For `O=[N+]([O-])c1cc2c(cc1C1OCCO1)OCO2`, the T/C [4] was 102 % of control, the T/C [5] was 100 % of control and the T/C [6] was 100 % of control. The T/C [7] was 98 % of control and the T/C [8] was 98 % of control.

With `C[CH2][Sn]1([CH2]C)[O]OC(c2ccccc2)[O]1` (stereo not given) the T/C [9] was 155 % of control and the T/C (dose: 12.5 mg/kg/injection, schedule: Q01DX009 (ip), vehicle: saline with Tween-80) was 173 % of control.

`O=C(N/N=C/c1ccco1)c1ccc(OCc2nc3ccccc3[nH]2)cc1` was tested, and the T/C (dose: 25.0 mg/kg/injection, schedule: Q01DX005 (ip), vehicle: saline with Tween-80) was 97 % of control, the T/C [10] was 94 % of control and the T/C [11] was 87 % of control. For the same molecule, the T/C [12] was 94 % of control.

In the case of `Cc1cc(C)c(N(CCO)CCO)cc1C`, the T/C (dose: 50.0 mg/kg/injection, schedule: Q01DX009 (ip), vehicle: saline with Tween-80) is reported as 99 % of control, the T/C (dose: 100.0 mg/kg/injection, schedule: Q01DX009 (ip), vehicle: saline with Tween-80) is reported as 108 % of control and the T/C (dose: 200.0 mg/kg/injection, schedule: Q01DX009 (ip), vehicle: saline with Tween-80) is reported as 97 % of control.

With `ClCCN(CCCl)c1ccc(N=Cc2ccccc2)cc1` the T/C [9] was 159 % of control and 167 % of control, the T/C (dose: 3.12 mg/kg/injection, schedule: Q01DX009 (ip), vehicle: saline with Tween-80) was 179 % of control and 205 % of control and the T/C (dose: 6.25 mg/kg/injection, schedule: Q01DX009 (ip), vehicle: saline with Tween-80) was 230 % of control.

In the case of `O=C1C(c2ccccc2)=C(c2ccccc2)/C1=C/c1ccc(Cl)cc1`, the T/C (dose: 100.0 mg/kg/injection, schedule: Q01DX001 (ip), vehicle: Klucel (hydroxypropylcellulose) (HPC)) is reported as 101 % of control, the T/C (dose: 200.0 mg/kg/injection, schedule: Q01DX001 (ip), vehicle: Klucel (hydroxypropylcellulose) (HPC)) is reported as 105 % of control and the T/C (dose: 400.0 mg/kg/injection, schedule: Q01DX001 (ip), vehicle: Klucel (hydroxypropylcellulose) (HPC)) is reported as 104 % of control.

In the case of `Oc1ccc(N=Cc2ccc3c(c2)OCO3)cc1`, the T/C (dose: 12.5 mg/kg/injection, schedule: Q01DX009 (ip), vehicle: other) is reported as 109 % of control, the T/C [4] is reported as 111 % of control and the T/C [5] is reported as 94 % of control. For the same molecule, the T/C [6] was 113 % of control, the T/C [7] was 111 % of control and the T/C [8] was 108 % of control.

`CC(C)(C)OC(=O)NC(CCCCNC=O)C(=O)O` (stereo not given) was tested, and the T/C [10] was 95 % of control, the T/C [11] was 96 % of control and the T/C [12] was 104 % of control.

For `CN(C)CCC=C1c2ccccc2C=Cc2ccccc21`, the T/C (dose: 12.5 mg/kg/injection, schedule: Q01DX005 (ip), vehicle: saline) was 103 % of control, the T/C (dose: 25.0 mg/kg/injection, schedule: Q01DX005 (ip), vehicle: saline) was 95 % of control and the T/C (dose: 50.0 mg/kg/injection, schedule: Q01DX005 (ip), vehicle: saline) was 112 % of control.

In the case of `COC(=O)C1CC(C(=O)OC)C2C(C(=O)OC)CC(C(=O)OC)C12` (stereo not given), the T/C (dose: 60.0 mg/kg/injection, schedule: Q01DX005 (ip), vehicle: saline with Tween-80) is reported as 99 % of control, the T/C (dose: 120.0 mg/kg/injection, schedule: Q01DX005 (ip), vehicle: saline with Tween-80) is reported as 96 % of control and the T/C (dose: 240.0 mg/kg/injection, schedule: Q01DX005 (ip), vehicle: saline with Tween-80) is reported as 99 % of control.

With `OCC(O)C(O)C(O)C(/C=N\Nc1ccccc1)=N/Nc1ccccc1` (stereo not given) the T/C (dose: 100.0 mg/kg/injection, schedule: Q04DX002 (ip), vehicle: saline) was 100 % of control, the T/C (dose: 200.0 mg/kg/injection, schedule: Q04DX002 (ip), vehicle: saline) was 97 % of control and the T/C (dose: 400.0 mg/kg/injection, schedule: Q04DX002 (ip), vehicle: saline) was 102 % of control.
